Assay: plasma from a Sprague Dawley rat
Conditions: 37 °C, up to 15 min

## H-ACGLSGLGVA-NH2
  fragment found: [^18F]FNA, 5 min

From PMC10891031 (2024)
